Test results reported in US20220030868A1, “FUNGICIDAL HALOMETHYL KETONES AND HYDRATES” (FMC CORPORATION, priority 2018, published 2022).

Assays:
[1] = system: Puccinia recondita f. sp. tritici; assay: Test B: test suspension sprayed on wheat seedlings one day before inoculation with Puccinia recondita f. sp. tritici spores (wheat leaf rust), disease rating; format: in vivo; settings: 100 = 100% disease control, 0 = no control
Summary of the method: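 Wheat seedlings were sprayed to run-off with compound suspended in 50/50 acetone/water containing 250 ppm PEG400, then inoculated with P. recondita f. sp. tritici spores the next day. Plants were held 24 h in saturated air at 20 °C, then 6 days in a growth chamber at 20 °C. Disease control was rated 0–100% relative to controls, with some entries run at 50 or 10 ppm.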

Phakopsora pachyrhizi = assay: Test A: test suspension sprayed on soybean seedlings one day before inoculation with Phakopsora pachyrhizi spores (Asian soybean rust), visual disease rating; format: in vivo; settings: 100 = 100% disease control, 0 = no control
Summary of the method: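 Compound dissolved in acetone (3% of final volume), then suspended at the stated ppm in 50/50 acetone/water with 250 ppm PEG400 surfactant; sprayed to run-off on soybean seedlings, inoculated with P. pachyrhizi spores next day. Held saturated at 22° C for 24 h, then 8 days at 22° C; visual rating as % disease control versus controls.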

Row | SMILES | Test B rating (disease control) ([1]; 10 ppm test suspension) [%] | Test A rating (disease control) (Phakopsora pachyrhizi; 10 ppm test suspension) [%] | other results
1 | CCCOC(=O)c1ccn(Cc2ccc(O/C=C(\OCC)C(F)(F)F)cc2)n1 [compound 292] | 0 | 100 | –
2 | CCO/C(=C\Oc1ccc(Cn2ccc(C(=O)OC(C)(C)C)n2)cc1)C(F)(F)F [compound 253] | 0 | 0 | –
3 | CCO/C(=C\Oc1ccc(Cc2ncc(C(=O)NCC(F)F)o2)cc1)C(F)(F)F [compound 255] | 0 | 89 | –
4 | CN(C)S(=O)(=O)c1ccc(OCC2(C(F)(F)F)OCCO2)cc1 [compound 25] | 0 | 0 | –
5 | CCOC(=O)C=CCOc1ccc(OCC(O)(O)C(F)(F)F)cc1 [Compound 97] | – | – | Test B rating (disease control) ([1]; 50 ppm test suspension): 0%; Test A rating (disease control) (Phakopsora pachyrhizi; 50 ppm test suspension): 94%
6 | CCO/C(=C\Oc1ccc(Cn2cc(C(=O)OC(C)(C)C)cn2)cc1)C(F)(F)F [compound 89] | 0 | 0 | –
7 | CCOC(=O)c1cnn(-c2ccc(O/C=C(\OCC)C(F)(F)F)cc2)c1 [compound 316] | – | – | Test B rating (disease control) ([1]; 50 ppm test suspension): 9%; Test A rating (disease control) (Phakopsora pachyrhizi; 50 ppm test suspension): 100%
8 | CCO/C(=C\Oc1ccc(CNC(=O)C(C)C)cc1)C(F)(F)F [compound 210] | 0 | 0 | –
9 | CCOC(=O)c1cnn(Cc2ccc(SCC3(C(F)(F)F)OCCO3)cc2)c1 [compound 115] | – | – | Test B rating (disease control) ([1]; 250 ppm test suspension): 0%; Test A rating (disease control) (Phakopsora pachyrhizi; 250 ppm test suspension): 0%
10 | C#CCOC(=O)c1cnn(Cc2ccc(OCC(O)(O)C(F)(F)F)cc2)c1 [Compound 44] | 85 | 97 | –
11 | CCO/C(=C\Oc1ccc(Cn2ccc(C(=O)OCC3CCC3)n2)cc1)C(F)(F)F [compound 361] | 0 | 100 | –
12 | C=C(C)COC(=O)c1cnn(Cc2ccc(OCC(O)(O)C(F)(F)F)cc2)c1 [Compound 40] | 68 | 91 | –
13 | CCO/C(=C\Oc1ccc(Cn2ncc3cccnc32)cc1)C(F)(F)F [compound 87] | 0 | 0 | –
14 | FC(F)(F)C1(COc2ccc(OCC3(C(F)(F)F)OCCO3)cc2)OCCO1 [compound 28] | 0 | 0 | –
15 | CCO/C(=C\Oc1ccc(Cn2cc(C(=O)NCC(F)(F)F)cn2)cc1)C(F)(F)F [compound 106] | 0 | 0 | –
16 | C=CCOC(=O)c1cnn(Cc2ccc(O/C=C(\OCC)C(F)(F)F)cc2)c1 [compound 246] | 0 | 100 | –
17 | CCO/C(=C\Oc1cccc(Cn2cc(C(=O)OCCCCl)cn2)c1)C(F)(F)F [compound 338] | 0 | 100 | –
18 | CCO/C(=C\Oc1ccc(COC(N)=O)cc1)C(F)(F)F [compound 193] | 86 | 0 | –
19 | C=C(C)COC(=O)c1cnn(Cc2cccc(O/C=C(\OCC)C(F)(F)F)c2)c1 [compound 335] | 0 | 100 | –
20 | CCOC(=O)NCc1ccc(O/C=C(\OCC)C(F)(F)F)cc1 [compound 111] | 0 | 0 | –
21 | CCOC(=O)c1cnn(Cc2ccc(C/C=C(\OCC)C(F)(F)F)cc2)c1 [compound 140] | 23 | 98 | –
22 | CCO/C(=C\Oc1ccc(Cn2ncnc2C(=O)OC)cc1)C(F)(F)F [Compound 122] | 0 | 0 | –
23 | CC#CCOC(=O)c1cnn(Cc2cccc(O/C=C(\OCC)C(F)(F)F)c2)c1 [compound 300] | 0 | 100 | –
24 | CCO/C(=C\Oc1ccc(C(=O)OC)cc1)C(F)(F)F [compound 230] | 0 | 0 | –
25 | CC=CCOC(=O)c1cnn(Cc2ccc(OCC3(C(F)(F)F)OCCO3)cc2)c1 [compound 285] | 0 | 100 | –
26 | CCO/C(=C\Oc1ccc(CO)cc1)C(F)(F)F [compound 195] | 0 | 0 | –
27 | CCOC(=O)c1cnnn1Cc1ccc(O/C=C(\OCC)C(F)(F)F)cc1 [compound 120] | 0 | 0 | –
